Measured values from US20070207093A1, “Hydrazone derivatives and uses thereof” (Linquagen Corp., priority 2005, published 2007).

Experiments:
Format in all cases: cell-based
[1] = tested on: membrane potential response (non-specific ion channel block); assay: KCl counterscreen (membrane potential dye, 10 mM KCl stimulation); settings: Homo sapiens; 10 μM compound; same HEK293 TRPM5 cells; 10 mM KCl instead of ATP; read-out: KC1 Counterscreen (percent inhibition)
Method: (§1) Two counterscreen assays were run on separate cell plates utilizing the same cells as described above. In the calcium counterscreen, the cells were loaded with a calcium sensitive dye (Calcium3 Dye, Part no. 8090, Molecular Devices Corp.) and stimulated by ATP to check for compounds that block the GPCR-mediated calcium activation step. In the KCl counterscreen, cells are stimulated with 10 mM KCl instead of ATP to check for compounds that inhibit the membrane potential response by virtue of being non-specific ion channel blockers.
(§2) Unless otherwise indicated, the data in the table below were determined using the three assays described above, providing percent inhibition data at 10 μM.

[2] = tested on: GPCR-mediated calcium activation step; assay: Calcium counterscreen (calcium sensitive dye, ATP stimulation); settings: Homo sapiens, 10 μM compound, same HEK293 TRPM5 cells, Calcium3 dye, read-out: Calcium Counterscreen (percent inhibition)
Method: as §1, §2

[3] = molecular target: T1, human TRPM5 ion channel (Homo sapiens, UniProt Q9NZQ8); assay: TRPM5 FLIPR membrane potential screening assay (ATP stimulation); settings: 10 μM compound; HEK293 cells stably expressing human TRPM5; 3 μM ATP stimulation; versus negative control wells; read-out: TRPM5 Activity (percent inhibition)
T1 construct: expressed in transfected cells
T1 sequence (Q9NZQ8 1-1165): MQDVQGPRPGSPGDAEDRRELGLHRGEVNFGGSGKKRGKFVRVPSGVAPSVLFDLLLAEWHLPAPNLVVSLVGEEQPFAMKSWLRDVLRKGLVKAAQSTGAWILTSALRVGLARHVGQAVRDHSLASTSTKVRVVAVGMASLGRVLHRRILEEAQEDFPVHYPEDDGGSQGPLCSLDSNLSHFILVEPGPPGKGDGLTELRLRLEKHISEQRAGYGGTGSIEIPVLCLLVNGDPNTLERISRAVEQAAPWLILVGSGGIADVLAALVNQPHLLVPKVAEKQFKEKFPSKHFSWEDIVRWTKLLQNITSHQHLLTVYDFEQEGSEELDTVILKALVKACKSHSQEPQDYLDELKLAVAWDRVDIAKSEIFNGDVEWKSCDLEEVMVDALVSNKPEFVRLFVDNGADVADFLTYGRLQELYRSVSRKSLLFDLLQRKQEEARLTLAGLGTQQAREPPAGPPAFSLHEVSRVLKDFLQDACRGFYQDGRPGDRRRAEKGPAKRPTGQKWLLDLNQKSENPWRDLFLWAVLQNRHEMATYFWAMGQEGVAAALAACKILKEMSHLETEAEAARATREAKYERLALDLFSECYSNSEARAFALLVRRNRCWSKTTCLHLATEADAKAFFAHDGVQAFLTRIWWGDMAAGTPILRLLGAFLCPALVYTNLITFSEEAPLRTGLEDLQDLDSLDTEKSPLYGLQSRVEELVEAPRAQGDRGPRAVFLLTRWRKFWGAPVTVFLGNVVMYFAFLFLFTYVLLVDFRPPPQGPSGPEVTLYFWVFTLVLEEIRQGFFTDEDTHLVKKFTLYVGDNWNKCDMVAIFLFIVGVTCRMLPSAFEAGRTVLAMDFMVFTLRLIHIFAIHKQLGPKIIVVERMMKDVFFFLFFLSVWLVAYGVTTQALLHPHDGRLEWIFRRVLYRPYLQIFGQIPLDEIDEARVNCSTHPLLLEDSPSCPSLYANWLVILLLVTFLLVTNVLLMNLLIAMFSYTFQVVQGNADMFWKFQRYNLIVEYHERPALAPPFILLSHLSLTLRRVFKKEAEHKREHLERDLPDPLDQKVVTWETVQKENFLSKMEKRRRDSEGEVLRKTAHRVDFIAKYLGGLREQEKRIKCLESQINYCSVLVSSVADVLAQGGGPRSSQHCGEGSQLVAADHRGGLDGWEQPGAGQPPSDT
Method: The activity of human TRPM5 ion channel was measured in live cells on a fluorescent imaging plate reader (FLIPR). The basis of the assay (shown in FIG. 1) is the calcium-dependent activation of the ion channel which occurs via by activation of a G-protein coupled receptor (GPCR). GPCR activation by an appropriate agonist causes a transient increase in […] Ca^2+ ion concentration which in turn causes the ion channel to open, letting in Na^+ ions. This influx causes a change in the membrane potential of the cell which can be monitored as a change in the fluorescent signal from voltage-dependent (membrane potential) fluorescent dyes.
For the screening assay, the human TRPM5 gene was cloned, put into HEK293 cells, and a stable, high expression clone was used for screening. Cells were grown in standard media at 37° C. The day before screening, the cells were removed from flasks and added to 384 well clear bottom plates (8K cells in 20 μL/well). On the assay day, 20 μL of membrane potential dye (Part No. R8123, Molecular Devices Corp.) was added to the cells and dye was allowed to be taken up, i.e., load, into the cells for 1 hr at 37° C. […] The assay was started by addition of 10 μL of solution from the compound plate into the cell plate. During this process, continuous fluorescent recordings were made simultaneously for all wells. After addition of the compound solution, the tips were automatically washed and a stimulation solution of 3 μM ATP (an agonist for an endogenous purinurgic GPCR, was added to all wells of the cell plate. The height of the response was calculated and percent inhibition values, versus negative control wells, was calculated for the test samples.
as §2

[4] = molecular target: T2, human TRPM5 (Homo sapiens, UniProt Q9NZQ8); assay: Whole-cell electrophysiology of TRPM5 current; settings: HEK293; HEK cells stably transfected with human TRPM5, pre-treated with 10 μM; current activated by intracellular calcium dialysis (170 nM free calcium); FIG. 2B
T2 construct: expressed in transfected cells; host or cells: HEK cells, stably transfected
T2 sequence (Q9NZQ8 1-1165): T1 sequence (Q9NZQ8 1-1165)
Method: Standard whole-cell recordings were obtained from HEK cells stably transfected with human TRPM5. Internal solution contained 135 mM CsGlutamate, 10 mM HEPES, 2 mM MgATP, 5 mM CaCl2 and 10 mM EGTA. External solution was HBSS (Gibco) buffered with 20 mM HEPES to pH 7.2. Currents were recorded with Multiclamp 700B amplifier using PClamp software; filered at 1 kHz, sampled at 5 kHz. Holding potential was −80 mV. TRPM5 current was activated by intracellular calcium dialysis (170 nM free calcium) and sampled with 200 ms ramps from −80 to 80 mV at 1 Hz. Current amplitudes were measured at −80 and 80 mV potted versus time.

COc1ccc(/C=N/NC(=O)Cc2cccc3ccccc23)cc1OC [Example 3, (E)-N′-(3,4-Dimethoxybenzylidene)-2-(naphthalene-1-yl)acetohydrazide]
inhibition at 10 µM [1]: 6% | inhibition at 10 µM [2]: 2% | inhibition at 10 µM [3]: 97% | inhibition at 10 µM [4]: > 90%
